Common to all, as to type: cell-based
The subject of assay [1] is UACC-257. Kind of assay: NCI sixty human tumor cell line screen, Melanoma panel. To be noted: UACC-257, Melanoma, NCI protocol. In short, it runs like this:
(§1)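 Growth-inhibitory effect is expressed as GI50 per NCI convention, from the institute's in vitro human tumour cell line screen of sixty lines across nine cancer types.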

Assay [2] concerns HCC-2998. Put plainly: NCI sixty human tumor cell line screen, Colon panel. The settings on record: HCC-2998, Colon, NCI protocol. In short, it runs like this:
as §1

The test system of assay [3] is HCT-15. The assay is described as above. To be noted: HCT-15, Colon, NCI protocol. In outline:
as §1

Assay [4] has as its system HS 578T. Put plainly: NCI sixty human tumor cell line screen, Breast panel. To be noted: NCI protocol. In outline: as §1
In assay [5] the test system is 786-0. Put plainly: NCI sixty human tumor cell line screen, Renal panel. The settings on record: 786-0, Renal, NCI protocol. In outline: as §1
Assay [6] has as its system IGROV1. Put plainly: NCI sixty human tumor cell line screen, Ovarian panel. To be noted: IGROV-1, NCI protocol. In short, it runs like this:
as §1

Assay [7] has as its system CCRF-CEM. Kind of assay: NCI sixty human tumor cell line screen, Leukemia panel. To be noted: NCI protocol. As for the experimental part:
(§2) The in vitro anticancer activity studies for these N-((1-benzyl-1H-1,2,3-triazol-4-yl)methyl) arylamide analogues were carried out at the National Cancer Institute, USA.
(§3) The N-((1-benzyl-1H-1,2,3-triazol-4-yl)methyl)arylamide analogues have been tested at NCI, USA, against sixty human tumor cell lines derived from nine cancer types (leukemia, non-small cell lung cancer, colon cancer, CNS cancer, melanoma cancer, ovarian cancer, renal cancer, prostate cancer and breast cancer). For these compounds results are expressed as growth inhibition (GI50) values as per NCI protocol.

In assay [8] the test system is HL-60(TB). The assay is described as above. The settings on record: NCI protocol. How it is done: as §2, §3
In assay [9] the test system is RPMI-8226. The assay is described as above. The settings on record: RPMI-8226, Leukemia, NCI protocol. How it is done: as §2, §3
The test system of assay [10] is SR. Described as above. The settings on record: NCI protocol. How it is done:
as §2, §3

Assay [11] concerns MOLT-4. The assay is described as above. The settings on record: MOLT-4, Leukemia, NCI protocol. As for the experimental part:
as §2, §3

Assay [12] concerns K-562. Described as above. To be noted: K562, K-562, Leukemia, NCI protocol. As for the experimental part: as §2, §3
Assay [13] relates to NCI-H23. Put plainly: NCI sixty human tumor cell line screen, Non-small-cell-lung panel. To be noted: NCI protocol. In short, it runs like this: as §1
Assay [14] relates to A549. Put plainly: IC50 of compounds and E7010 against A549 cell line. From the text:
(§4) In the present investigation, an attempt has been made, in view of the biological importance of both 2-anilino nicotinyl structure and 1,2,3-triazoles group. […] Introduction of triazole group on 2-anilino nicotinyl moiety resulted that there is enhancement of biological activity of representative compounds (1a, 1b, 1c, 1d, 1f, 1g, 1i, 1k, 6b and 6g) compare with E7010. Biological data of representative compounds has been provided in Table 1. • (Novel sulfonamides as potential, systemically active antitumor agents. Yoshino, H.; Ueda, N.; Niijima, J.; Sugumi, H.; Kotake, Y.; Koyanagi, N.; Yoshimatsu, K.; Asada, M.; Watanabe, T.; Nagasu, T. J. Med. Chem. 1992, 35, 2496-2497)

The test system of assay [15] is MALME-3M. Put plainly: NCI sixty human tumor cell line screen, Melanoma panel. To be noted: NCI protocol. In short, it runs like this: as §1
The subject of assay [16] is OVCAR-5. Put plainly: NCI sixty human tumor cell line screen, Ovarian panel. The settings on record: OVCAR-5, Ovarian, NCI protocol. In outline: as §1
Assay [17] has as its system NCI-H322M. Kind of assay: NCI sixty human tumor cell line screen, Non-small-cell-lung panel. To be noted: NCI protocol. In outline:
as §1

Assay [18] concerns HOP-92. The assay is described as above. To be noted: HOP-92, Non-small-cell-lung, NCI protocol. In short, it runs like this:
as §1

In assay [19] the test system is MCF7. Kind of assay: NCI sixty human tumor cell line screen, Breast panel. To be noted: NCI protocol. In outline:
as §1

Assay [20] has as its system MCF-7. Kind of assay: IC50 of compounds and E7010 against MCF-7 cell line.
Source text: as §4

Where [21] appears, read: Homo sapiens, A549, A549 cell line.
Setting [22] is: Homo sapiens, MCF7, MCF-7 cell line.

Where only a bound is given, the exact number is not on record here.

As a reminder, the GI50 is the concentration at which growth is held to half of that of the control. As usually defined, the IC50 is the point on the concentration scale where inhibition reaches its midpoint. Read a low IC50 as greater potency in that assay. Consider `O=C(NCc1cn(Cc2cccc(Oc3ccccc3)c2)nn1)c1cccnc1Nc1ccccc1` [Compound 1a, N-((1-(3-Phenoxybenzyl)-1H-1,2,3-triazol-4-yl)methyl)-2-(phenylamino)nicotinamide], for which the GI50 in [1] was found to be 1.42 µM; in assay [2], 3.7 µM; in assay [3], 3.81 µM; in [4], 30.9 µM; in assay [5], 23.2 µM; in [6], 30.7 µM. The GI50 turned out to be 3.34 µM in [7]; 3.74 µM in [8]; 3.61 µM in [9]; 2.56 µM in assay [10]; 3.74 µM in [11]; 3.69 µM in assay [12]. In assay [13], this molecule displayed a GI50 of 3.73 µM. The IC50 in assay [14] (A549 cell line) was 1.54 µM; in assay [14] (setting [21]) it was 1.25 to 3.98 µM.

Regarding `O=C(NCc1cn(Cc2cccc(Oc3ccccc3)c2)nn1)c1cccnc1Nc1ccc(F)cc1` [Compound 1b, 2-(4-Fluorophenylamino)-N-((1-(3-phenoxybenzyl)-1H-1,2,3-triazol4-yl)methyl)nicotinamide], the GI50 in assay [15] was 15.1 µM; in assay [1] it was 6.87 µM; in assay [4] it was 5.9 µM; in assay [5] it was 5.59 µM; in assay [16] it was 4.23 µM; in assay [6], 5.89 µM. Further, the GI50 in assay [17] was found to be 5.29 µM; in assay [13] it was 29.9 µM; in assay [18], 10.7 µM. Also, the IC50 in [14] (A549 cell line) is 1.69 µM; in assay [14] (setting [21]), 1.25 to 3.98 µM.

With `COc1ccc(Nc2ncccc2C(=O)NCc2cn(Cc3cccc(Oc4ccccc4)c3)nn2)cc1` [Compound 1e, 2-(4-Methoxyphenylamino)-N-((1-(3-phenoxybenzyl)-1H-1,2,3-triazol-4-yl)methyl) nicotinamide], the GI50 in assay [15] is 3.8 µM; in [1] it was 4.82 µM; in assay [2], 2.53 µM; in assay [3], 3.93 µM; in assay [5], 6.73 µM; in [16], no less than 100 µM. Moreover, the concentration for 50% growth inhibition (GI50) is 3.8 µM in [7]; 2.66 µM in assay [8]; 4.84 µM in assay [9]; 2.91 µM in [11]; 3.48 µM in assay [12]; 5.24 µM in assay [17]. The values for the GI50 in assay [13] and in assay [18] were 3.45 µM and 5.67 µM, respectively.

For the molecule `O=C(NCc1cn(Cc2cccc(Oc3ccccc3)c2)nn1)c1cccnc1NCc1ccc(Cl)cc1` [Compound 1k, 2-(4-Chlorobenzylamino)-N-((1-(3-phenoxybenzyl)-1H-1,2,3-triazol-4-yl)methyl) nicotinamide], the concentration for 50% growth inhibition (GI50) was found to be 5.69 µM in assay [15]; 3.83 µM in [1]; 4.17 µM in assay [2]; 3.39 µM in [3]; 2.72 µM in [4]; 2.99 µM in [19]. For the same molecule, the GI50 in assay [16] turned out to be 5.62 µM; in assay [6] it was 9.03 µM; in assay [7] it was 3.05 µM; in [8], 3.39 µM; in [9], 3.12 µM; in [10], 3.31 µM. Moreover, the 50% growth inhibitory concentration (GI50) in assay [11] is 3.28 µM; in assay [12], 3.24 µM; in [18], 4.23 µM. Further, the IC50 in [14] (A549 cell line) is 1.79 µM; in assay [14] (setting [21]), 1.25 to 3.98 µM.

Regarding `COc1ccc(Nc2ncccc2C(=O)NCc2cn(Cc3cccc(Oc4ccccc4)c3)nn2)c(OC)c1` [Compound 1g, 2-(2,4-Dimethoxyphenylamino)-N-((1-(3-phenoxybenzyl)-1H-1,2,3-triazol-4-yl)methyl) nicotinamide], the GI50 in assay [15] was determined as 4.07 µM; in [2], 3.33 µM; in assay [3], 2.89 µM; in assay [4], 2.94 µM; in [19], 0.65 µM; in [5], 4.06 µM. Besides, the GI50 in assay [16] is 8.34 µM; in assay [6], 5.96 µM; in [7], 1.2 µM; in assay [8] it was 2.21 µM; in assay [9] it was 3.03 µM; in [11], 3.65 µM. Moreover, the values for the GI50 in assay [12] and in [13] were 0.75 µM and 2.24 µM, respectively. In addition, the IC50 was 0.74 to 2.51 µM in assay [20] (setting [22]), 0.74 µM in assay [20] (MCF-7 cell line), 1.57 µM in assay [14] (A549 cell line) and 1.25 to 3.98 µM in [14] (setting [21]).

On to `COc1cc(Nc2ncccc2C(=O)NCc2cn(Cc3cccc(Oc4ccccc4)c3)nn2)cc(OC)c1` [Compound 1i, 2-(3,5-Dimethoxyphenylamino)-N-((1-(3-phenoxybenzyl)-1H-1,2,3-triazol-4-yl)methyl) nicotinamide], for which the GI50 in assay [15] is 5.81 µM; in [1], 4.86 µM; in [2] it was 9.6 µM; in assay [3], 3.89 µM; in assay [5], 6.73 µM; in assay [16], no less than 100 µM. Further, the GI50 in assay [7] was determined as 4.19 µM; in [8] it was 3.97 µM; in assay [9], 5.25 µM; in assay [11], 4.85 µM; in assay [12], 5.05 µM; in assay [17] it was 6.15 µM. Further, the values for the GI50 in assay [13] and in [18] were 6.22 µM and 4.67 µM, respectively. For the same molecule, the IC50 in [20] (setting [22]) was 0.74 to 2.51 µM; in [20] (MCF-7 cell line), 0.93 µM; in [14] (A549 cell line), 1.93 µM; in assay [14] (setting [21]) it was 1.25 to 3.98 µM.

The record behind these values is patent US9309225B2, “N-((1-benzyl-1H-1,2,3-triazol-4-yl)methyl)arylamide compounds as potential anticancer agents and a process for the preparation thereof” (COUNCIL OF SCIENTIFIC & INDUSTRIAL RESEARCH, priority 2013, dated 2016).
